A word on the EC50: it is the concentration at which the effect is half-maximal.

Counter-ions that a name gives are not always drawn. Like-named read-outs stand apart in the source and are kept apart here. A value given as a limit tells only on which side of the number the result lay.

The text below walks through data of US8193167B2, “Pharmacologically active agents containing esterified phosphonates and methods for use thereof” (priority 2004, dated 2012).

One series deals with MCMV strain Smith. Briefly: Plaque reduction assay for antiviral activity, MCMV in MEF cells. The series is classed as cell-based. The note with it: read-out: MCMV EC50. (In general: In a plaque reduction assay, fewer plaques than in the control indicate reduced infectivity or spread.)
A further series deals with HCMV strain AD-169. Put plainly: Plaque reduction assay for antiviral activity, HCMV in HFF cells. Conditions: read-out: HCMV EC50. It is filed as cell-based.
For series [1], the system named is human foreskin fibroblast (HFF) cells.
A further series concerns Vaccinia Copenhagen. Put plainly: microbe, parasite or virus in culture. The series is classed as cell-based, vaccinia virus (VV). The note with it: read-out: Vaccinia Copenhagen EC50.
Another series relates to Cowpox Brighton. Briefly: microbe, parasite or virus in culture. It is filed as cell-based, cowpox virus (CV). The note with it: read-out: Cowpox Brighton EC50.
A short description of another series: in vitro. The note with it: human.
[2] abbreviates: HFF cells, 8-day incubation, value without SD = single determination.

For the compound `CCCCCCCCCCCCCCCCCCCCCCOP1(=O)COC(Cn2ccc(N)nc2=O)CO1` (mixture of isomers) [DC-cCDV, Docosyl Cyclic Cidofovir], the EC50 in the series on MCMV strain Smith (MEF cells, 7-day incubation) is 2800 ± 1700 nM; in the series with HCMV strain AD-169 (setting [2]), 32 nM. In series [1], this compound registered a CC50 above 100000 nM.

`CCCCCCCCCCCCOP(=O)(O)CO[C@H](CO)Cn1ccc(N)nc1=O` [DD-CDV, Dodecyl Cidofovir, Sodium Salt]: the half-maximal effective concentration (EC50) with MCMV strain Smith (MEF cells, 7-day incubation) is above 10000 nM; in the series on Vaccinia Copenhagen it was above 20000 nM; with HCMV strain AD-169 (setting [2]), 310 ± 190 nM; in the series on Cowpox Brighton it was above 20000 nM. This compound registered a CC50 in series [1] above 100000 nM.

For the compound `CCCCCCCCCCCCCCCCCCCCOP1(=O)CO[C@@H](Cn2ccc(N)nc2=O)CO1` (some centres unmarked) [EC-cCDV, Eicosyl Cyclic Cidofovir], the EC50 amounted to 230 ± 10 nM in the series on MCMV strain Smith (MEF cells, 7-day incubation) and 11 nM in the series on HCMV strain AD-169 (setting [2]). In series [1], this compound displayed a CC50 of 86100 nM.

For the compound `Nc1ccn(C[C@@H](CO)OCP(=O)(O)O)c(=O)n1` [CDV, Cidofovir, reference compound], the EC50 with MCMV strain Smith (MEF, 168 h) is 40 ± 30 nM; in the series with Vaccinia Copenhagen (Orthopoxvirus vaccinia, HFF) it was 31000 ± 5400 nM; in the series with HCMV strain AD-169 (Human betaherpesvirus 5, AD169, HFF, 192 h) it was 1200 ± 430 nM; in the series with Cowpox Brighton (Cowpox virus, HFF), 42000 ± 5400 nM. Moreover, the CC50 in “in vitro” was above 317000 nM.

Turning to `Nc1ccn(C[C@H]2COP(=O)(O)CO2)c(=O)n1` [cCDV, Cyclic Cidofovir, reference compound], the EC50 in the series on MCMV strain Smith (168 h, MEF cells, 7-day incubation) is 230 ± 70 nM; with HCMV strain AD-169 (Human betaherpesvirus 5, AD169, 192 h, HFF cells, 8-day incubation, value without SD = single determination), 3100 ± 1800 nM. This compound returned a CC50 in “in vitro” above 331000 nM.

As for `CCCCCCCCCCCCCCCCCCCCCCCCOP(=O)(O)CO[C@H](CO)Cn1ccc(N)nc1=O` [TC-CDV, Tetracosyl Cidofovir, Sodium Salt], the EC50 in the series with MCMV strain Smith (MEF cells, 7-day incubation) was 7450 ± 640 nM; in the series on Vaccinia Copenhagen, above 17000 nM; in the series on HCMV strain AD-169 (setting [2]), 6 nM; in the series with Cowpox Brighton, above 20000 nM. The compound further yielded a CC50 in series [1] above 100000 nM.

On to `CCCCCCCCOP(=O)(O)CO[C@H](CO)Cn1ccc(N)nc1=O` [O-CDV, Octyl Cidofovir, Sodium Salt], for which the EC50 was above 10000 nM in the series with MCMV strain Smith (MEF cells, 7-day incubation); above 20000 nM with Vaccinia Copenhagen; 5250 ± 5700 nM in the series on HCMV strain AD-169 (setting [2]); above 20000 nM in the series with Cowpox Brighton. The compound also showed a CC50 in series [1] above 100000 nM.

Take `CCCCCCCCCCCCCCCCOP(=O)(O)COC(CO)Cn1ccc(N)nc1=O` (centres unmarked) [HD-CDV, Hexadecyl Cidofovir, Sodium Salt]: the EC50 in the series with MCMV strain Smith (MEF cells, 7-day incubation) stood at 20 nM; in the series with Vaccinia Copenhagen it was 3100 ± 100 nM; with HCMV strain AD-169 (setting [2]), 5 nM; in the series with Cowpox Brighton it was 6000 ± 2000 nM. Further, in series [1], the CC50 is above 157000 nM.

For the compound `CCCCCCCCCCCCCCCCCCCCCCCCOP1(=O)CO[C@@H](Cn2ccc(N)nc2=O)CO1` (some centres unmarked) [TC-cCDV, Tetracosyl Cyclic Cidofovir], the 50% effective concentration (EC50) is 2300 ± 1300 nM in the series with MCMV strain Smith (MEF cells, 7-day incubation) and 320 nM with HCMV strain AD-169 (setting [2]). The compound also yielded a CC50 in series [1] above 100000 nM.

Regarding `CCCCCCCCCCCCCCCCOP1(=O)COC(Cn2ccc(N)nc2=O)CO1` (mixture of isomers) [HD-cCDV, Hexadecyl Cyclic Cidofovir], the EC50 in the series on MCMV strain Smith (MEF cells, 7-day incubation) worked out at 130 ± 10 nM; in the series on HCMV strain AD-169 (setting [2]), 3100 ± 2350 nM. In series [1], this compound gave a CC50 of 83000 ± 20000 nM.

For the compound `CCCCCCCCCCCCCCCCCCCCCCOP(=O)(O)COC(CO)Cn1ccc(N)nc1=O` (centres unmarked) [DC-CDV, Docosyl Cidofovir, Sodium Salt], the EC50 in the series on MCMV strain Smith (MEF cells, 7-day incubation) amounted to 850 ± 7 nM; with HCMV strain AD-169 (setting [2]), 4 nM. Further, in series [1], the CC50 worked out at 79600 nM.

In the case of `CCCCCCCCCCCCCCCCCCCCOP(=O)(O)CO[C@H](CO)Cn1ccc(N)nc1=O` [EC-CDV, Eicosyl Cidofovir, Sodium Salt], the concentration for a half-maximal effect (EC50) in the series with MCMV strain Smith (MEF cells, 7-day incubation) stood at 5 nM; with Vaccinia Copenhagen, 1600 ± 1300 nM; in the series on HCMV strain AD-169 (setting [2]), 0.7 nM; with Cowpox Brighton it was 1500 ± 900 nM.
